These results are taken from the supplement of paper PMC10331698.

± gives the standard deviation of the averaged measurements.

Experiment in all cases: level (log10 ratio to DMSO vehicle control); higher = higher biomarker level / cell amount than vehicle control
What all share (settings): in DMSO

Compound in experiment [1]: O=S(=O)(O)C(F)(F)C(F)(F)C(F)(F)C(F)(F)C(F)(F)C(F)(F)F [Perfluorohexanesulfonic acid]
The method, then: (§1)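 BioMAP Diversity Plus panel of 12 human primary cell co-culture systems (3C, 4H, LPS, SAg, BT, BF4T, BE3C, CASM3C, HDF3CGF, KF3CT, MyoF, Mphg). Compounds were added 1 h before stimulation and left for 24 h (MyoF 48 h; BT 72 h for soluble read-outs or 6 d for IgG). Biomarkers were read by ELISA, cytotoxicity by SRB, PBMC viability and proliferation by Alamar Blue. Each well value was divided by the mean of 8 DMSO control wells on the same plate and log10 transformed; duplicate blinded samples were tested at 4 concentrations.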

Compound in experiment [2]: C=CC(=O)OCC(F)(F)C(F)(F)C(F)(F)C(F)(F)C(F)(F)C(F)(F)C(F)(F)F [1H,1H-Perfluorooctyl acrylate]
Here is the method: as §1

Compound in the next experiment: O=C(O)C(F)(F)C(F)(F)C(F)(F)C(F)(F)F [Perfluoropentanoic acid]
The method, then: as §1

Compound in experiment [3]: O=C(O)C(F)(F)OC(F)(F)C(F)(F)OC(F)(F)C(=O)O [Perfluoro-3,6-dioxaoctane-1,8-dioic acid]
Here is the method:
as §1

Compound in experiment [4]: COC(=O)CCC(F)(F)C(F)(F)C(F)(F)C(F)(F)F [Methyl 2H,2H,3H,3H-perfluoroheptanoate]
The method, then: as §1

Compound in experiment [5]: O=C(O)C(F)(F)C(F)(F)C(F)F [4H-Perfluorobutanoic acid]
Here is the method: as §1

For lMphg:M-CSF, the “level (log10)” value in experiment [1] (6700 nM) is -0.0105 ± 0.033; in experiment [1] (20000 nM) it was 0.0005 ± 0.011; in experiment [1] (60000 nM), 0.0135 ± 0.022; in experiment [2] (6700 nM), 0.015 ± 0.0028; in experiment [2] (20000 nM) it was -0.0245 ± 0.023; in experiment [2] (60000 nM), -0.027 ± 0.034. The “level (log10)” value in the experiment with Perfluoropentanoic acid (6700 nM) was -0.028 ± 0.045; in the experiment with Perfluoropentanoic acid (20000 nM) it was 0.006 ± 0.035; in the experiment with Perfluoropentanoic acid (60000 nM), 0.0095 ± 0.049; in experiment [3] (6700 nM), -0.009; in experiment [3] (20000 nM) it was -0.0185 ± 0.015; in experiment [3] (60000 nM), 0.01 ± 0.042. The “level (log10)” value was -0.0325 ± 0.0078 in experiment [4] (6700 nM); -0.0275 ± 0.005 in experiment [4] (20000 nM); 0.0075 ± 0.022 in experiment [4] (60000 nM); -0.0115 ± 0.005 in experiment [5] (6700 nM); -0.015 ± 0.0028 in experiment [5] (20000 nM); -0.0175 ± 0.0064 in experiment [5] (60000 nM).
With lMphg:SRB, the “level (log10)” value was -0.016 ± 0.037 in experiment [1] (6700 nM); -0.0045 ± 0.0078 in experiment [1] (20000 nM); -0.0265 ± 0.029 in experiment [1] (60000 nM); -0.006 ± 0.0071 in experiment [2] (6700 nM); -0.013 ± 0.016 in experiment [2] (20000 nM); -0.0035 ± 0.012 in experiment [2] (60000 nM). Also, the “level (log10)” value with Perfluoropentanoic acid (6700 nM) was -0.0125 ± 0.0035; with Perfluoropentanoic acid (20000 nM) it was -0.0065 ± 0.0092; with Perfluoropentanoic acid (60000 nM) it was 0.01 ± 0.018; in experiment [3] (6700 nM), -0.0035 ± 0.013; in experiment [3] (20000 nM), -0.009 ± 0.014; in experiment [3] (60000 nM), -0.0035 ± 0.015. Moreover, the “level (log10)” value in experiment [4] (6700 nM) is -0.008 ± 0.02; in experiment [4] (20000 nM), -0.016 ± 0.0057; in experiment [4] (60000 nM) it was -0.0095 ± 0.023; in experiment [5] (6700 nM), -0.0035 ± 0.019; in experiment [5] (20000 nM), -0.005 ± 0.0057; in experiment [5] (60000 nM) it was 0.0025 ± 0.0021.
As to lMphg:SRB-Mphg, the “level (log10)” value was 0.0015 ± 0.074 in experiment [1] (6700 nM); 0.013 ± 0.0071 in experiment [1] (20000 nM); 0.0255 ± 0.018 in experiment [1] (60000 nM); -0.002 ± 0.011 in experiment [2] (6700 nM); -0.0015 ± 0.0078 in experiment [2] (20000 nM); 0.0045 ± 0.018 in experiment [2] (60000 nM). For the same test system, the “level (log10)” value with Perfluoropentanoic acid (6700 nM) is -0.0125 ± 0.022; with Perfluoropentanoic acid (20000 nM) it was 0.001 ± 0.0071; in the experiment with Perfluoropentanoic acid (60000 nM) it was 0.006 ± 0.017; in experiment [3] (6700 nM), -0.0025 ± 0.0035; in experiment [3] (20000 nM), -0.009 ± 0.016; in experiment [3] (60000 nM), -0.003 ± 0.0099. The “level (log10)” value in experiment [4] (6700 nM) is -0.0285 ± 0.012; in experiment [4] (20000 nM) it was -0.022 ± 0.095; in experiment [4] (60000 nM), 0.04 ± 0.057; in experiment [5] (6700 nM) it was -0.009 ± 0.075; in experiment [5] (20000 nM), -0.015 ± 0.054; in experiment [5] (60000 nM) it was 0 ± 0.027.
On to lMphg:sIL-10, for which the “level (log10)” value in experiment [1] (6700 nM) was -0.0345 ± 0.061; in experiment [1] (20000 nM), -0.073 ± 0.1; in experiment [1] (60000 nM), -0.239 ± 0.025; in experiment [2] (6700 nM), 0.018 ± 0.02; in experiment [2] (20000 nM) it was -0.023 ± 0.05; in experiment [2] (60000 nM) it was -0.0565 ± 0.042. Besides, the “level (log10)” value with Perfluoropentanoic acid (6700 nM) was -0.017 ± 0.013; with Perfluoropentanoic acid (20000 nM), -0.075 ± 0.025; in the experiment with Perfluoropentanoic acid (60000 nM), -0.0845 ± 0.05; in experiment [3] (6700 nM), -0.0425 ± 0.011; in experiment [3] (20000 nM), -0.0615 ± 0.036; in experiment [3] (60000 nM), -0.058 ± 0.055. The “level (log10)” value in experiment [4] (6700 nM) was -0.0515 ± 0.029; in experiment [4] (20000 nM) it was -0.117 ± 0.12; in experiment [4] (60000 nM), 0.0005 ± 0.037; in experiment [5] (6700 nM) it was -0.0495 ± 0.096; in experiment [5] (20000 nM) it was -0.0605 ± 0.054; in experiment [5] (60000 nM), -0.019 ± 0.0014.
